Earlier results on one compound are cited in patent US7718385B2, “Bioactivation of alkylating agents for cancer treatment” (priority 2003, dated 2010).

Data set [1] has as its system SK-MEL-5. Conditions: SK-MEL-5, Melanoma, cited from earlier work.
For data set [2], the system named is DU-145. Conditions: DU-145, Prostate, cited from earlier work.
For data set [3], the system named is U251. Conditions: U251, Central Nervous System, cited from earlier work.

Consider `CC1=C(CO)C2=C(C)C3(CC3)[C@@](C)(O)C(=O)C2=C1` [Irofulven, 6-hydroxymethylacylfulvene], for which, in data set [1], the GI50 was 158 nM, the TGI is given as 3.98E−07, the “log(GI50)” value was −6.8 and the “log(LC50)” value is recorded as −6. Also, the “log(TGI)” value in data set [1] is −6.4. Further, in data set [1] (read-out: LC50), the CC50 was 1000 nM. In data set [2], the GI50 was 100 nM, the TGI is recorded as 2.00E−07, the “log(GI50)” value is −7 and the “log(TGI)” value is given as −6.7. Also, the CC50 in data set [2] (read-out: LC50) is ≥ 100 µM. Also, in data set [3], the 50% growth inhibitory concentration (GI50) was 316 nM, the TGI is on record as 6.31E−06, the “log(GI50)” value is listed as −6.5 and the “log(LC50)” value is recorded as −4.3. The “log(TGI)” value in data set [3] is recorded as −5.2. Further, the CC50 in data set [3] (read-out: LC50) was 50.1 µM.
